Test results published in PMC8237303 (Heliyon, 2021).

Tests used:
[1] = target: Histamine H3 receptor (Human) (Homo sapiens, UniProt Q9Y5N1); experiment: N-alpha-[3H]-Methylhistamine, Dihydrochloride binding assay; conditions: 0.1 mM l-menthol; Human recombinant
[2] = system: Na Channel; assay type: binding; conditions: 0.1 mM l-menthol; Rat whole brain
[3] = target: CCK B receptor (Human) (Homo sapiens, UniProt P32239); experiment: [125I]-Cholecystokinin Octapeptide binding assay; conditions: 0.1 mM l-menthol; Human recombinant
[4] = system: Imidazoline receptor (Central); experiment: [3H]RX 781094; assay type: binding; conditions: 0.1 mM l-menthol; Rat cerebral cortex
[5] = target: Endothelin ETB receptor (Human) (Homo sapiens, UniProt P24530); experiment: [125I]-Endothelin-1; assay type: binding; conditions: 0.1 mM l-menthol; Human recombinant
[6] = system: GABA A receptor (Agonist site); experiment: [3H]-Muscimol binding assay; conditions: 0.1 mM l-menthol; Rat cerebellum
[7] = system: Glutamate receptor (AMPA); experiment: D,L-alpha-[3H]-Amino-3-Hydroxy-Methylisoxazole-4-Propionic Acid; assay type: binding; conditions: 0.1 mM l-menthol; Rat cerebral cortex
[8] = target: Endothelin ETA receptor (Human) (Homo sapiens, UniProt P25101); experiment: [125I]-Endothelin-1; assay type: binding; conditions: 0.1 mM l-menthol; Human recombinant
[9] = target: Neurokinin NK1 receptor (Human) (Homo sapiens, UniProt P25103); experiment: [125I]-Substance P binding assay; conditions: 0.1 mM l-menthol; Human recombinant
[10] = target: Cannabinoid CB1 receptor (Human) (Homo sapiens, UniProt P21554); experiment: [3H]-CP-55,940 binding assay; conditions: 0.1 mM l-menthol; Human recombinant
[11] = system: PAF receptor; experiment: 1-O-Hexadecyl-[3H]-Platelet Activating Factor; assay type: binding; conditions: 0.1 mM l-menthol; Rabbit platelet
[12] = target: Histamine H1 receptor (Human) (Homo sapiens, UniProt P35367); experiment: [3H]-Pyrilamine binding assay; conditions: 0.1 mM l-menthol; Human recombinant
[13] = target: Opiate κ receptor (Human) (Homo sapiens, UniProt P41145); assay type: binding; conditions: 0.1 mM l-menthol
Opiate κ receptor (Human), sequence (P41145 whole entry): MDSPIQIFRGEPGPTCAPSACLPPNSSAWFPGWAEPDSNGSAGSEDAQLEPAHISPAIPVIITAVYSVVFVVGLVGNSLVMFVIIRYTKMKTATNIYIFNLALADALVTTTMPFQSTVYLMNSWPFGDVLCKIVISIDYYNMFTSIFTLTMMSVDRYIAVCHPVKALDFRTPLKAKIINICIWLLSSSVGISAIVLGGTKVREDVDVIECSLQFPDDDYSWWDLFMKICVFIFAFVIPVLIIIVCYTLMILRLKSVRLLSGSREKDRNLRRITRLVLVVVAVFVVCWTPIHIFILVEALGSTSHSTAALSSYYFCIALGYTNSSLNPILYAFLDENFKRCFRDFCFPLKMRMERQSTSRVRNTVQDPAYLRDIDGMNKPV

Histamine H1 receptor (Human), sequence (P35367 whole entry): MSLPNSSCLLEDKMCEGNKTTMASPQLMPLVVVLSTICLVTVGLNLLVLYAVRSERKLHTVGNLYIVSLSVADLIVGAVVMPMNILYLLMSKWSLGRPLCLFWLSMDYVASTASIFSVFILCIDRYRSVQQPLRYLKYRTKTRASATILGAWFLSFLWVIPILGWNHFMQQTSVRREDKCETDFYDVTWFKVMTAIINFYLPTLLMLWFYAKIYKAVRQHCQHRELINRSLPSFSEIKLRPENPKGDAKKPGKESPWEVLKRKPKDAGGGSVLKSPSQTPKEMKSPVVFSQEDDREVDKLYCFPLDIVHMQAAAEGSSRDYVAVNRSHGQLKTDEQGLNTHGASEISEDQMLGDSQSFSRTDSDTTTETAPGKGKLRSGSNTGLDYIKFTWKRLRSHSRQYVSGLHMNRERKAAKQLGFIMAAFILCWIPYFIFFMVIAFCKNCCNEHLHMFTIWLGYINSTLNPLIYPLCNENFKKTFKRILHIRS
Cannabinoid CB1 receptor (Human), sequence (P21554 whole entry): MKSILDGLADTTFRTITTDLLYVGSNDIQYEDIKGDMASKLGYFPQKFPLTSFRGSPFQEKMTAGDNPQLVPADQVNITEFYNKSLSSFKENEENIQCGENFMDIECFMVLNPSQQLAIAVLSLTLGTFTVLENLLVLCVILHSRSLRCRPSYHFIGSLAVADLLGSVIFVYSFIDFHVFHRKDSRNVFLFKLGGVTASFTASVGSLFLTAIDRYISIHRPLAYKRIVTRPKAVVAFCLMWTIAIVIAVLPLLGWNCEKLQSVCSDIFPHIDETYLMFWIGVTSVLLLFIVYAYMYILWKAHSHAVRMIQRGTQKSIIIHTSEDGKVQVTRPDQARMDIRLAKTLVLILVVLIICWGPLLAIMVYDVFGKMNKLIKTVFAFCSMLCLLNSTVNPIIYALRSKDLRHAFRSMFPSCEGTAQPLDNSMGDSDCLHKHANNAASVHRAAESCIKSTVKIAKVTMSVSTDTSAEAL
Neurokinin NK1 receptor (Human), sequence (P25103 whole entry): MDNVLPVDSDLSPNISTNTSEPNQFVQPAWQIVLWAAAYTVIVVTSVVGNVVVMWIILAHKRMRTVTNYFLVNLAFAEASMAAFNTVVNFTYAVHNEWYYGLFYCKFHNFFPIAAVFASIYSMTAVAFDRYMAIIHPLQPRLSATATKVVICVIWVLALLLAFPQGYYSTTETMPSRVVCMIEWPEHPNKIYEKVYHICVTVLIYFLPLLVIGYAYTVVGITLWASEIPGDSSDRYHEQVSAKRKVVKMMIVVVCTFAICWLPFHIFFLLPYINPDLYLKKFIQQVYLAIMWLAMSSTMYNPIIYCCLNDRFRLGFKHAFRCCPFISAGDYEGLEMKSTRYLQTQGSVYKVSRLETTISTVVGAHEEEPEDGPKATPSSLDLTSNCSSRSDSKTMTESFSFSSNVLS
Histamine H3 receptor (Human), sequence (Q9Y5N1 whole entry): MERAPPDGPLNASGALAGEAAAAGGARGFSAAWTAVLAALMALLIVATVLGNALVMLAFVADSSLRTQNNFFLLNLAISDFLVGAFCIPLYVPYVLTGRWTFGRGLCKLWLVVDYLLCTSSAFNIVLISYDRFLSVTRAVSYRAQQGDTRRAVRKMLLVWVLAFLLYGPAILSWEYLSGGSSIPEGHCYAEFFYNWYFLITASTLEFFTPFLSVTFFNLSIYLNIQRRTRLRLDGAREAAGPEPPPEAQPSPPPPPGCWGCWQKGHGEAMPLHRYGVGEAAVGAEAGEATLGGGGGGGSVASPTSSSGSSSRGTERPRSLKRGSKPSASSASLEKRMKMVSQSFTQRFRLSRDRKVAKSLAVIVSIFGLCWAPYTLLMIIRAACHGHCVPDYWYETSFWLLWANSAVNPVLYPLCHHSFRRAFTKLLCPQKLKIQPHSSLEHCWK
Endothelin ETA receptor (Human), sequence (P25101 21-427): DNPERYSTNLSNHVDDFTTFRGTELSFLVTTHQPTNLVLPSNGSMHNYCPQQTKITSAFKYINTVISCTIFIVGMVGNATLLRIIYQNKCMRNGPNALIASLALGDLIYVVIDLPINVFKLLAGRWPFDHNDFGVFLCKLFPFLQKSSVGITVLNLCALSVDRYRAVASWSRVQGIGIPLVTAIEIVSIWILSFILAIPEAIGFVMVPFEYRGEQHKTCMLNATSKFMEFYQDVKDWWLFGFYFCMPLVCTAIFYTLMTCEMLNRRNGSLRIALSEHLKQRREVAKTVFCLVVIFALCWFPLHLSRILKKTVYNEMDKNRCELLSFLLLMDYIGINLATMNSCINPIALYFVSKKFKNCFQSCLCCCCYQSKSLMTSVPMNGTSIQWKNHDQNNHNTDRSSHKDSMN
CCK B receptor (Human), sequence (P32239 whole entry): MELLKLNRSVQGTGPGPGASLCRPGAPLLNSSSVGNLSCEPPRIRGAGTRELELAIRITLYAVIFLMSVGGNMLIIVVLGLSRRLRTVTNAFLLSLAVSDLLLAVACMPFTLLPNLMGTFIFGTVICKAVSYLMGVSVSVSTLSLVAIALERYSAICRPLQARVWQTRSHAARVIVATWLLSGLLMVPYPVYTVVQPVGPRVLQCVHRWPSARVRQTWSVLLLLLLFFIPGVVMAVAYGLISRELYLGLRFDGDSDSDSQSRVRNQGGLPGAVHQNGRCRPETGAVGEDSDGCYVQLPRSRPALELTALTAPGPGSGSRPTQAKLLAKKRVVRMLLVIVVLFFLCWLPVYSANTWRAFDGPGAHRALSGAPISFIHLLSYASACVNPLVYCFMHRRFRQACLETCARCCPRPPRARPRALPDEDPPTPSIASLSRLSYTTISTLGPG
Endothelin ETB receptor (Human), sequence (P24530 27-442): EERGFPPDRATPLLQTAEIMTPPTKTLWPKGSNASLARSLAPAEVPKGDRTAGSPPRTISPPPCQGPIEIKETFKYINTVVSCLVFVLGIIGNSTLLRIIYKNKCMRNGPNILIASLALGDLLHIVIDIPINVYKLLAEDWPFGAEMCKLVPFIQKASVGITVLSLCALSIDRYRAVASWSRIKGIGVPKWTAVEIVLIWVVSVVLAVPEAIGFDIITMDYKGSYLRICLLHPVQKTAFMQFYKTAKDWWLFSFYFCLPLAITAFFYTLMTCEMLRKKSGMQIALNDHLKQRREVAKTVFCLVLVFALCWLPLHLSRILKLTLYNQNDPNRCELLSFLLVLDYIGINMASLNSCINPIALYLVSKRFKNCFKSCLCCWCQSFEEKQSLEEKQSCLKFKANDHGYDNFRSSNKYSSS

CC(C)[C@@H]1CC[C@@H](C)C[C@H]1O [l-menthol]
Inhibition by l-Menthol (%) [1]: 0%
Inhibition by l-Menthol (%) [2]: 14.04%
Inhibition by l-Menthol (%) [3]: 3.31%
Inhibition by l-Menthol (%) [4]: 6.53%
Inhibition by l-Menthol (%) [5]: 3.39%
Inhibition by l-Menthol (%) [6]: 0.2%
Inhibition by l-Menthol (%) [7]: 0%
Inhibition by l-Menthol (%) [8]: 0%
Inhibition by l-Menthol (%) [9]: 3.74%
Inhibition by l-Menthol (%) [10]: 9.12%
Inhibition by l-Menthol (%) [11]: 0%
Inhibition by l-Menthol (%) [12]: 0%
Inhibition by l-Menthol (%) [13]: 4.86%
